Results as given in US6664285B1, “Use of cell membrane penetrating indigoid bisindole derivatives” (priority 1999, dated 2003).
Like-named read-outs stand apart in the source and are kept apart here.

Tests used:
[1] = test system: various tumor cell lines (all); test: Colony-forming assay, all tumor xenografts; type: cell-based, human
Text: The compounds according to the inventive Examples show good to excellent anti-tumor activity against various types of tumor cell lines.

[2] = test system: mammary carcinoma line MCF-7; test: Tumor cell growth inhibition, sulforhodamine B (SRB) assay; type: cell-based, human; details: MCF7; three days incubation, serum containing medium
[3] = Solubility; type: physicochemical
[4] = test system: large-cell lung carcinoma xenograft line LXFL 529 L; test: Tumor cell growth inhibition, sulforhodamine B (SRB) assay; type: cell-based, human; details: LXFL529L; three days incubation, serum containing medium
[5] = test system: LXFL 529L cells; test: Cellular uptake into LXFL 529L cells; details: for distribution cellular organelles / distribution cytosol: 2 hours incubation
Description: The compounds of Examples 1, 6 and 8 and Comparative Examples 1 and 2 were investigated with respect to their ability to penetrate LXFL 529L cells having the passage numbers P23 to P39. The amounts of the substances taken up by the cells are given depending on the concentration of the substance within the incubation medium. The time of incubation was 2 hours in all of the experiments. Furthermore, the distribution of the substance which was taken up by the cells in the cytosol and the cellular organelles (particular) was estimated and is given in the intermediate column of Table 2. Tumor cell growth inhibition was determined by the sulfo-rhodamine B assay (SRB assay) according to Skehan et al., J. Natl. Cancer Institute 82, pages 1107-1112 (1990). Incubation was conducted for three days in serum containing medium. Tumor cell lines tested were a large-cell lung carcinoma xenograft line LXFL 529 L and the mammary carcinoma line MCF-7.

[6] = test system: HT29X (colon); test: Colony-forming assay; type: cell-based, human; details: for IC50: read-out: IC50 colony formation
[7] = test system: LXFA526 (lung adenocarcinoma); test: Colony-forming assay; type: cell-based, human; details: for IC50: read-out: IC50 colony formation
[8] = test system: LXFS650 (lung small-cell); test: Colony-forming assay; type: cell-based, human; details: for IC50: read-out: IC50 colony formation
[9] = test system: PAXF546 (pancreatic); test: Colony-forming assay; type: cell-based, human; details: for IC50: read-out: IC50 colony formation
[10] = test system: MCF7X (mammary); test: Colony-forming assay; type: cell-based, human; details: for IC50: read-out: IC50 colony formation
[11] = test system: MEXF514 (melanoma); test: Colony-forming assay; type: cell-based, human; details: for IC50: read-out: IC50 colony formation
[12] = test system: 1220 (renal); test: Colony-forming assay; type: cell-based, human; details: renal 1220
[13] = test system: human tumor xenograft LXFL 529; test: In vivo testing in nude mice bearing subcutaneous tumor xenograft
Description: Compound of Examples 1, 4, 6, 8, 9 and 10 were subjected to in vivo testing in nude mice bearing subcutaneously growing human tumor xenograft LXFL 529. The indigoid bisindole derivatives were applied intraperitoneally to the animals in doses and according to the schedule as described in Table 4.
The experiments were run for 21 or 28 days. Anti-tumor activity was evaluated comparing the median tumor volume relative to control, expressed as %T/C, wherein T is the test group and C the vehicle control group. In Table 4, anti-tumor activity is given according to an activity rate scale.

[14] = test system: PAXF736 (pancreatic); test: Colony-forming assay; type: cell-based, human; details: for IC50: read-out: IC50 colony formation
[15] = test system: OVXF1353 (ovarian); test: Colony-forming assay; type: cell-based, human; details: for IC50: read-out: IC50 colony formation
Description: (§1) The anti-tumor activity of the compounds was evaluated via a colony-forming-assay as described e.g. by D. P. Berger et al. in Annals of Oncology 1, pages 333-341 (1 990), “The clonongenic assay with human tumor xenografts, evaluation, predictive values and application for drug screening”.
(§2) The experiments were conducted using various tumor cell lines, in particular mammary carcinoma (MAXF), lung adenocarcinoma (LXFA), large-cell lung carcinoma (LXFL), small-cell lung carcinoma (LXFS), colon carcinoma (CXF), melanoma (MEXF), pancreatic carcinoma (PAXF), renal carcinoma (RXF), ovarian carcinoma (OVXF) and bladder carcinoma (BXF).

[16] = test system: LXFA289 (lung adenocarcinoma); test: Colony-forming assay; type: cell-based, human; details: for IC50: read-out: IC50 colony formation
[17] = test system: BXF1301 (bladder); test: Colony-forming assay; type: cell-based, human; details: for IC50: read-out: IC50 colony formation
[18] = test system: CXF280 (colon); test: Colony-forming assay; type: cell-based, human; details: for IC50: read-out: IC50 colony formation
[19] = test system: MX1 (mammary); test: Colony-forming assay; type: cell-based, human; details: for IC50: read-out: IC50 colony formation
[20] = test system: MEXF989 (melanoma); test: Colony-forming assay; type: cell-based, human
[21] = test system: MEXF515LX (melanoma); test: Colony-forming assay; type: cell-based, human; details: for IC50: read-out: IC50 colony formation
[22] = test system: LXFL529 (lung large-cell); test: Colony-forming assay; type: cell-based, human
[23] = test system: OVXF1355 (ovarian); test: Colony-forming assay; type: cell-based, human
[24] = test system: OVXF899 (ovarian)
Description: as §1, §2

[25] = type printed pancreatic, xenograft printed HT29X
[26] = read-out: IC50 colony formation
[27] = concentration of incubation 10 μM
[28] = concentration of incubation 20 μM
[29] = 100 mg/kg/day i.p., days 1, 4, 8, 11, 15, 18, 22
[30] = 300 mg/kg/day i.p., days 1, 4, 8, 11, 15, 18, 22

Structure (SMILES): O=C1Nc2ccc(S(=O)(=O)O)cc2C1=C1Nc2ccccc2C1=O [Comparative Example 1, Indirubin-5-sulfonic acid, reference compound]
- IC70 colony formation ([1]; tumor xenograft type (all)): >30.0 µM
- IC50 ([1]; tumor xenograft type (all), read-out: IC50 colony formation): > 30 µM
- anti-tumor activity (in words) ([1]; various types of tumor cell lines): does not exhibit an anti-tumor activity against any of the tumor lines
- IC50 [2]: > 100 µM
- solubility in physiological solutions (in words) [3]: well soluble in physiological solutions
- IC50 [4]: > 100 µM
- uptake by the tumor cells (in words) ([5]; LXFL 529L cells): essentially not taken up by the cells

Structure (SMILES): O=C1Nc2ccc(S(=O)(=O)O)cc2C1=C1Nc2ccccc2C1=NO [Comparative Example 2, Indirubin-3′-oxime-5-sulfonic acid, reference compound]
- IC50 [2]: > 100 µM
- solubility in physiological solutions (in words) [3]: well soluble in physiological solutions
- IC50 [4]: > 100 µM
- uptake by the tumor cells (in words) ([5]; LXFL 529L cells): essentially not taken up by the cells

Structure (SMILES): O=C1Nc2ccc(I)cc2/C1=C1/Nc2ccccc2C1=O [Example 2, 5-Iodoindirubin]
- IC70 colony formation ([6]; colon HT29X): >30 µM
- IC50 ([6]; colon HT29X): 6.3 µM
- IC70 colony formation [7]: 23 µM
- IC50 [7]: 8 µM
- IC70 colony formation [8]: 24.5 µM
- IC50 [8]: 13.7 µM
- IC70 colony formation [9]: >30 µM
- IC50 [9]: 18 µM
- IC70 colony formation [10]: 2.5 µM
- IC50 [10]: < 1 µM

Structure (SMILES): O=C1Nc2ccc(Br)cc2/C1=C1/Nc2ccccc2C1=O [Example 3, 5-Bromoindirubin]
- IC70 colony formation ([6]; colon HT29X): 17.3 µM
- IC50 ([6]; colon HT29X): < 1 µM
- IC70 colony formation [6, 25]: >30 µM
- IC50 [6, 25]: 13.2 µM
- IC70 colony formation [7]: 14.4 µM
- IC50 [7]: 2.3 µM
- IC70 colony formation [11]: 8.0 µM
- IC50 [11]: 3.4 µM
- IC70 colony formation [10]: <1.0 µM
- IC50 [10]: < 1 µM

Structure (SMILES): O=C1Nc2ccc(Cl)cc2/C1=C1/Nc2ccccc2C1=O [Example 4, 5-Chloroindirubin]
- IC70 colony formation ([6]; colon HT29X): 17.3 µM
- IC50 ([6]; colon HT29X): < 1 µM
- IC70 colony formation [12]: 24.7 µM
- IC50 [12, 26]: 11.2 µM
- IC70 colony formation [11]: 26.0 µM
- IC50 [11]: 17.1 µM
- activity rating ([13]; 100 mg/kg/day i.p., days 1-5): ++ (tumor stasis T/C ≦ 25%)
- activity rating ([13]; 300 mg/kg/day i.p., days 1-5): ++ (tumor stasis T/C ≦ 25%)
- tumor growth (relative tumor volume) compared to the vehicle control (in words) ([13]; LXFL 529/17, i.p., nude mice, FIG. 1): significantly inhibited the tumor growth
- IC70 colony formation [9]: >30 µM
- IC50 [9]: 4.6 µM
- IC70 colony formation [14]: 8.0 µM
- IC50 [14]: 3.2 µM
- IC70 colony formation [10]: <1.0 µM
- IC50 [10]: < 1 µM

Structure (SMILES): O=C1Nc2ccc(F)cc2C1=C1Nc2ccccc2C1=O [Example 5, 5-Fluoroindirubin]
- IC70 colony formation [15]: 6.1 µM
- IC50 [15]: < 1 µM
- IC70 colony formation [14]: 1.1 µM
- IC50 [14]: < 1 µM
- IC70 colony formation [10]: <1.0 µM
- IC50 [10]: < 1 µM

Structure (SMILES): O=C1Nc2ccc([N+](=O)[O-])cc2C1=C1Nc2ccccc2C1=O [Example 7, 5-Nitroindirubin]
- IC70 colony formation [11]: >10.0 µM
- IC50 [11]: 4.9 µM
- IC70 colony formation [10]: 15.1 µM
- IC50 [10]: < 1 µM

Structure (SMILES): O=C1Nc2ccccc2/C1=C1/Nc2ccccc2/C1=N\O [Example 8, Indirubin-3′-oxime]
- IC50 [2]: 3.3 ± 0.4 µM
- IC70 colony formation [16]: 3.4 µM
- IC50 [16]: 0.9 µM
- IC50 [4]: 3 ± 0.5 µM
- IC70 colony formation [17]: 16.1 µM
- IC50 [17]: 10.6 µM
- IC70 colony formation [18]: 12.6 µM
- IC50 [18]: 8 µM
- ability to penetrate the cellular membrane / uptake compared to indirubin (Example 1) (in words) ([5]; LXFL 529L cells): slightly improved
- uptake by the tumor cells (in words) ([5]; LXFL 529L cells): taken up by the tumor cells
- distribution cellular organelles [5, 27]: 57 ± 14.1%
- distribution cytosol [5, 27]: 43 ± 14.1%
- distribution cellular organelles [5, 28]: 56 ± 15.6%
- distribution cytosol [5, 28]: 44 ± 15.6%
- IC70 colony formation [19]: 9.2 µM
- IC50 [19]: 7.7 µM
- IC70 colony formation [20]: 2.6 µM
- IC50 [20, 26]: 1 µM
- activity rating [13, 29]: − (inactive T/C > 50%)
- activity rating [13, 30]: − (inactive T/C > 50%)
- IC70 colony formation [21]: 5.7 µM
- IC50 [21]: 2.8 µM

Structure (SMILES): O=C1Nc2ccc(I)cc2/C1=C1/Nc2ccccc2/C1=N\O [Example 9, 5-Iodoindirubine-3′-oxime]
- IC70 colony formation [16]: 0.7 µM
- IC50 [16]: 0.05 µM
- IC70 colony formation [17]: 5.8 µM
- IC50 [17]: 4 µM
- IC70 colony formation [18]: 16.3 µM
- IC50 [18]: 10.7 µM
- activity rating [13, 29]: − (inactive T/C > 50%)
- activity rating [13, 30]: + (tumor inhibition T/C > 25-50%)
- IC70 colony formation [21]: 4.9 µM
- IC50 [21]: 2.6 µM
- IC70 colony formation [10]: 10.4 µM
- IC50 [10]: 2.4 µM

Structure (SMILES): O=C1Nc2ccccc2/C1=C1\C(=O)Nc2ccccc21 [Example 10, Isoindigo]
- IC50 ([6]; Homo sapiens, colon HT29X): < 1 µM
- IC70 colony formation ([6]; colon HT29X): <1.0 µM
- IC70 colony formation [17]: 8.2 µM
- IC50 ([17]; Homo sapiens): 6 µM
- IC70 colony formation [22]: 4.5 µM
- IC50 ([22]; Homo sapiens, LXFL 529, read-out: IC50 colony formation): 2.6 µM
- IC70 colony formation [23]: <1.0 µM
- IC50 ([23]; Homo sapiens, read-out: IC50 colony formation): < 1 µM
- IC70 colony formation [18]: <1.0 µM
- IC50 ([18]; Homo sapiens): < 1 µM
- IC70 colony formation [19]: <1.0 µM
- IC50 ([19]; Homo sapiens): < 1 µM
- IC70 colony formation [8]: <1.0 µM
- IC50 ([8]; Homo sapiens): < 1 µM
- IC70 colony formation [20]: <1.0 µM
- IC50 ([20]; Homo sapiens, MEXF 989, read-out: IC50 colony formation): < 1 µM
- activity rating ([13]; 30 mg/kg/day i.p., days 1-5): − (inactive T/C > 50%)
- activity rating ([13]; 100 mg/kg/day i.p., days 1-5): − (inactive T/C > 50%)
- activity rating ([13]; 300 mg/kg/day i.p., days 1-5): + (tumor inhibition T/C > 25-50%)
- IC70 colony formation [9]: <1.0 µM
- IC50 ([9]; Homo sapiens): < 1 µM
- IC70 colony formation [14]: <1.0 µM
- IC50 ([14]; Homo sapiens): < 1 µM
- IC70 colony formation [10]: <1.0 µM
- IC50 ([10]; Homo sapiens): < 1 µM

Structure (SMILES): O=C1/C(=C2\Nc3ccccc3C2=O)Nc2ccccc21 [Example 11, Indigo]
- IC70 colony formation [15]: 16.7 µM
- IC50 ([15]; Homo sapiens): 3.9 µM
- IC50 ([6]; Homo sapiens, colon HT29X): 3.3 µM
- IC70 colony formation ([6]; colon HT29X): 26.1 µM
- IC70 colony formation [16]: 12.3 µM
- IC50 ([16]; Homo sapiens): 3.5 µM

Structure (SMILES): O=C1Nc2ccc(S(=O)(=O)NCCO)cc2C1=C1Nc2ccccc2C1=O [Example 13, Indirubin-5-sulfone(2-hydroxyethyl)amide]
- IC70 colony formation [16]: 2.6 µM
- IC50 [16]: 1.1 µM
- IC70 colony formation [22]: 5.9 µM
- IC50 [22, 26]: 3.4 µM
- IC70 colony formation [18]: 17.3 µM
- IC50 [18]: 12 µM
- IC70 colony formation [24]: 0.4 µM
- IC50 [24, 26]: 0.3 µM
- IC70 colony formation [21]: 0.4 µM
- IC50 [21]: < 0.1 µM
- IC70 colony formation [10]: 2.1 µM
- IC50 [10]: 0.6 µM
